doi:10.1101/157495v1 (biorxiv, 2017)
Blank lines part the entries; values can stand above or below the compound they belong to.

Legend:
AncCDT-1 = assay: isothermal titration calorimetry; format: binding, synthetic construct; settings: 20 mM Na2HPO4, 150 mM NaCl, pH 7.4, 25 °C; on-column refolded protein
Ws0279 = Ws0279 (Wolinella succinogenes, UniProt Q7MAG0); assay: biochemical; settings: read-out: ΔTM
Pu1068 = biological target: T1, Pu1068 (Candidatus Pelagibacter communis, UniProt Q4FLR5); assay: intrinsic tryptophan fluorescence titration; format: binding
T1 sequence (Q4FLR5 19-255): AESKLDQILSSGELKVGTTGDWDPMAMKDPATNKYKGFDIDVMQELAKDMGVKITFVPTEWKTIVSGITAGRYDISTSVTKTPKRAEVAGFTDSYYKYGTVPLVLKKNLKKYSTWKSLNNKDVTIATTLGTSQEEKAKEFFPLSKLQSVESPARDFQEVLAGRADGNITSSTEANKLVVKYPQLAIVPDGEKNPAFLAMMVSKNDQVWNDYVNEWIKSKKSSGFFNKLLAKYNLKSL

Chain of Ws0279 (Q7MAG0 24-258): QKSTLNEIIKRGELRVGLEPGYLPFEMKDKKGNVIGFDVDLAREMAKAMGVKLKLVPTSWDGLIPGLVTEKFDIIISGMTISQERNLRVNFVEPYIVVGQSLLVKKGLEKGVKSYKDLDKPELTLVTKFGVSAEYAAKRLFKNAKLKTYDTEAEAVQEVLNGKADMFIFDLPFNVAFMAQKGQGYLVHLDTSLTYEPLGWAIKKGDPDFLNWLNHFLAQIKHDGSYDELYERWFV

Structure (SMILES): N=C(N)NCCC[C@H](N)C(=O)O [L-arginine]
- Kd (AncCDT-1): 320 nM

Structure (SMILES): N[C@@H](Cc1cnc[nH]1)C(=O)O [L-histidine]
- Kd (AncCDT-1): 2300 nM

Structure (SMILES): NCCCC[C@H](N)C(=O)O [L-lysine]
- ΔTm at 10000 µM (Ws0279): 7.2 °C
- Kd (AncCDT-1): 6700 nM

The remaining lines, values ahead:

- Kd (AncCDT-1): 1200 nM
Structure (SMILES): NCCC[C@H](N)C(=O)O [L-ornithine]

- Kd (Pu1068): 530000 nM
Structure (SMILES): C[N+]1(CCCS(=O)(=O)[O-])CCCCC1 [NDSB-221, 3-(1-methylpiperidinium-1-yl)propane-1-sulfonate]
